Patent US5631261A, “Triazoloquinazolines, their preparation and use” (BASF Aktiengesellschaft, priority 1992, dated 1997)

Tests used:
[1] = target: T1, NMDA receptor (N-methyl-D-aspartate) (Rattus norvegicus, UniProt P35439); assay: Binding of 3H-5,7-dichlorokynurenic acid (displacement from rat cerebral membranes); conditions: buffer pH 7.4, on ice 30 minutes
T1 construct: isolated membrane material from rat cerebra; from tissue; host or cells: rat cerebrum, washed membranes
Protocol: (§1) The pharmacological activity of the compounds I according to the invention was investigated on isolated membrane material from rat cerebra. To do this, the membrane material was treated in the presence of the compounds according to the invention with the radiolabeled substances ^3 H-2-amino-3-hydroxy-5-methyl-4-isoxazolepropionic acid (^3 H-AMPA) and ^3 H-5,7-dichlorokynurenic acid, the latter binding to specific receptors (AMPA receptor and NMDA receptor (N-methyl-D-aspartate)respectively). The radioactivity of the treated membranes was subsequently measured by scintillation counting. The amounts of bound ^3 H-AMPA and ^3 H-5,7-dichlorokynurenic acid, or in each case the amounts of these radiolabeled substances displaced, were determined from the bound radioactivity. The dissociation constant KI (I=inhibitor) resulting from this, which is a measure of the displacing effect of the agent according to the invention, was found by iterative nonlinear regression analysis using the Statistical Analysis System (SAS) on an IBM computer, similar to the Ligand program of P. J. Munson or D. Rodbard (Analytical Biochem. 107, 220 (1980), Ligand: Versatile Computerized Approach for Characterization of Ligand Binding Systems).
2. Binding of ^3 H-5,7-dichlorokynurenic acid
To prepare the membrane material, freshly removed rat cerebra were homogenized together with about 10 times the volume of a buffer solution A' composed of 50 mM TRIS-HCl and 10 mM EDTA, pH 7.4. The suspension was centrifuged at 48,000 g for 20 minutes. After removal of the supernatant liquid, the membrane material present in the sediment was washed twice by suspension in buffer solution A' and subsequent centrifugation for 20 minutes each time and suspension. After resuspension of the membranes in buffer solution A' and freezing in liquid nitrogen, the suspension was thawed again at 37° C. and, after another wash step, incubated at 37° C. for 15 minutes. The protein material was subsequently washed by centrifugation and suspension four times and was stored at -70° C. until used.
For the binding assay, the protein material was thawed at 37° C. and washed twice by centrifugation at 48,000 g (20 minutes) followed by suspension in a buffer solution B' composed of 50 mM TRIS-HCl, pH 7.4. Subsequently 0.15 mg of membrane material, 0.3 μCi of ^3 H-5,7-dichlorokynurenic acid (16 Ci/mmol) and compound I were dissolved in 1 ml of buffer solution B' and incubated on ice for 30 minutes. The incubated solution was centrifuged at 150,000 g for 2 minutes. After removal of the supernatant liquid, the sediments were suspended twice in 1.5 ml of cold buffer solution B' each time. After the radioactivity of the ^3 H-5,7-dichlorokynurenic acid bound to the membranes in the sediment had been measured, the KI was found by subjecting the displacement plots to regression analysis.

[2] = target: AMPA receptor; assay: Binding of 3H-AMPA (displacement from rat cerebral membranes); conditions: buffer pH 7.1, on ice 60 minutes
Protocol: as §1
1. Binding of ^3 H-2-amino-3-hydroxy-5-methyl-4-isoxanolpropionic acid (^3 H-AMPA)
To prepare the membranes, freshly removed rat cerebra were homogenized together with about 15 times the volume of a buffer solution A composed of 30 mM α,α,α-tris(hydroxymethyl)methylamine hydrochloride (TRIS-HCl) and 0.5 mM ethylenediaminetetraacetic acid (EDTA), pH 7.4, using an Ultra-TURRAX. The suspension was centrifuged at 48,000 g for 20 min. After removal of the supernatant liquid, the proteinaceous membrane material present in the sediment was washed three times by suspension in buffer solution A and subsequent centrifugation at 48,000 g for 20 minutes each time. The membrane material was then suspended in 15 times the volume of buffer solution A and incubated at 37° C. for 30 minutes. The protein material was subsequently washed twice by centrifugation and suspension and stored at -70° C. until used.
For the binding assay, the protein material was thawed at 37° C. and washed twice by centrifugation at 48,000 g (20 minutes) followed by suspension in a buffer solution B composed of 50 mM TRIS-HCl, 0.1 M potassium thiocyanate and 2.5 mM calcium chloride, pH 7.1. Subsequently 0.25 mg of membrane material, 0.1 μCi of ^3 H-AMPA (60 Ci/mmol) and compound I were dissolved in 1 ml of buffer solution B and incubated on ice for 60 minutes. The incubated solution was filtered through a CF/B filter (from Whathman) which had previously been treated with a 0.5% strength aqueous solution of polyethyleneimine for at least 2 hours. The filtrate [sic] was then washed with 5 ml of cold buffer solution B in order to separate bound and free ^3 H-AMPA from one another. After the radioactivity of the bound ^3 H-AMPA in the membrane material had been measured by scintillation counting, the KI was determined by subjecting the displacement plots to regression analysis.

Row | SMILES | Ki [1] | Ki [2]
1 | O=C(O)CCc1nc2c3ccc4ccccc4c3[nH]c(=O)n2n1 [Example 19] | 300 nM | 700 nM
2 | Cc1cc2[nH]c(=O)n3nc(CCC(=O)NCc4ccccc4)nc3c2cc1C [Example 21, 3-(8,9-Dimethyl-1,2,4-triazolo[1,5-c]quinazolin-5-on-2)propionic acid benzylamide] | 800 nM | 
3 | O=C(O)CCc1nc2c3ccc([N+](=O)[O-])cc3[nH]c(=O)n2n1 [Example 14] | 170 nM | 600 nM
4 | O=C(O)CCc1nc2c3cc([N+](=O)[O-])c([N+](=O)[O-])cc3[nH]c(=O)n2n1 [Example 15] | 400 nM | 1000 nM
5 | O=C(O)CCc1nc2c3ccc(C(F)(F)F)cc3[nH]c(=O)n2n1 [Example 18] | 650 nM | 600 nM
6 | COC(=O)CCc1nc2c3cc(C)c(C)cc3[nH]c(=O)n2n1 [Example 4, Methyl 3-(8,9-dimethyl-1,2,4-triazolo[1,5-c]quinazolin-5-on-2)propionate] | 1750 nM | 
7 | O=C(O)CCCc1nc2c3ccc([N+](=O)[O-])cc3[nH]c(=O)n2n1 [Example 13] | 500 nM | 3400 nM
8 | O=C(O)CCc1nc2c3cc4ccccc4cc3[nH]c(=O)n2n1 [Example 20] | 400 nM | 600 nM
9 | Cc1cc2[nH]c(=O)n3nc(CCC(=O)O)nc3c2cc1C [Example 16] | 100 nM | 
